{"source": "patent US20250170111A1", "about": "“PYRIDINE BASED CHALCONE ANALOGS AS THERAPEUTIC AGENTS AND USE THEREOF” (QATAR UNIVERSITY, priority 2023, published 2025)", "key": {"[1]": {"test_system": "MDA-MB-231 and MDA-MB-436", "experiment": "Soft agar colony formation assay, TNBC cell lines", "type": "cell-based, human", "conditions": "28 days"}, "[2]": {"test_system": "DU145", "experiment": "Cell cycle analysis (PI flow cytometry), DU145", "type": "cell-based, human", "conditions": "DU145, 48 hours; not statistically significant (P>0.05)", "description": "Cells were seeded in 100 mm Petri dishes at a density of 1.5 million cells/dish and incubated in RPMI supplemented with 10% FBS overnight at 37° C. Complete culture media was then removed, and cells were starved in serum serum-free for 16 hours to synchronize cells at the G0/G1 phase of the cell cycle. Subsequently, cells were treated with the compounds 13, 15, and 16 or docetaxel for 48 hours. After treatment, floating and adherent cells were collected, washed with ice-cold PBS and centrifuged at 500 g for 10 minutes at 4° C. Next, cells were fixed with ice-cold 70% ethanol added drop wisely while vertexing and stored at −20° C. for at least 24 hours. On the day of analysis, cells were pelleted (centrifuged at 800 g for 10 minutes at 4° C.), washed twice with ice-cold PBS and counted. Around one million cells of each sample were resuspended in 500 μl of FxCycle PI/RNase Staining Solution® (Thermo Fisher Scientific, USA) supplemented with 200 μg/ml RNase and incubated for 50 minutes at 37° C. in a shaking water bath, protected from light. Following incubation, cells were immediately analyzed by BD FACSAria™ II Flow Cytometer, at least 50,000 events were acquired for each sample. The proportion of cells in each cell cycle phase: […]"}, "[3]": {"test_system": "PC3 and DU145", "experiment": "Wound healing assay, PC3 and DU145", "conditions": "both cell lines; significant from 5 μM in PC3"}, "[4]": {"test_system": "PC3", "experiment": "Alamar Blue cell viability assay, PC3", "conditions": "for IC50: read-out: PC3 IC50, 48 hours, Mean ± SEM of three independent experiments"}, "[5]": {"test_system": "DU145", "experiment": "Alamar Blue cell viability assay, DU145", "conditions": "Homo sapiens, DU-145, 48 h, read-out: DU145 IC50"}, "[6]": {"test_system": "primary human dental bulb cells (ND)", "experiment": "Alamar Blue cell viability, normal primary dental cells", "conditions": "48 hours, Mean ± SEM"}, "[7]": {"test_system": "JNK1/2/3, ERK1/2, Akt", "experiment": "Western blot of JNK, ERK and AKT-related biomarkers in PC3", "conditions": "PC3 cell line"}, "[8]": {"test_system": "Bax, Bcl-2", "experiment": "Western blot of apoptosis-related proteins in PC3 and DU145", "conditions": "PC3 and DU145, 48 hours of treatment"}, "[9]": {"test_system": "PC3 and DU145", "experiment": "Alamar Blue cell viability, AR-negative PCa cell lines (stated for both)", "conditions": "Homo sapiens, DU-145, read-out: IC50 against PC3 and DU145 cell lines"}, "[10]": {"test_system": "PC3 and DU145", "experiment": "Soft agar colony formation assay, PC3 and DU145 (stated for both)", "type": "cell-based, human", "conditions": "5 and 10 μM, 14 days, both cell lines", "description": "Anchorage-independent growth, a characteristic of transformed cells that correlate with in vivo tumorigenic potential, was assessed by soft agar assay. First, a 2% noble agar (Sigma-Aldrich) stock solution was prepared in deionized and autoclaved water. […] After 14 days, the average number of colonies in each well was counted manually under the microscope and confirmed by ImageJ; only colonies with an area larger than […] were counted to avoid the inclusion of non-proliferating dead cells. Besides, the size of colonies in each treatment condition was measured by ImageJ from at least six random fields per well."}, "[11]": {"test_system": "C4-2 and LNCaP", "experiment": "Morphological examination, AR-positive PCa cell lines", "type": "cell-based", "description": "Cells were seeded in 6 wells plate at a density of 150,000-200,000 cells/well and were incubated overnight. […] Morphological changes were monitored using a DMi8 inverted microscope (Leica, Germany) and images were captured with a Leica MC170 HD camera."}, "[12]": {"test_system": "MDA-MB-231", "experiment": "Alamar Blue cell viability assay, MDA-MB-231", "type": "cell-based", "conditions": "Homo sapiens, Mean ± SEM, read-out: IC50 against MDA-MB-231", "source_text": "(§1) Besides, the effect of these analogs was compared to docetaxel, a first-line chemotherapy, as a positive control."}, "[13]": {"test_system": "MDA-MB-436", "experiment": "Alamar Blue cell viability assay, MDA-MB-436", "type": "cell-based", "conditions": "Homo sapiens, Mean ± SEM, read-out: IC50 against MDA-MB-436", "source_text": "as §1"}, "[14]": {"test_system": "MDA-MB-231 and MDA-MB-436", "experiment": "Alamar Blue cell viability, TNBC cell lines (stated for both)", "type": "cell-based", "conditions": "Homo sapiens", "source_text": "as §1"}, "[15]": {"test_system": "MDA-MB-231", "experiment": "Wound healing assay, MDA-MB-231", "type": "cell-based, human"}, "[16]": {"test_system": "MDA-231 and MDA-436", "experiment": "Morphological examination, TNBC cell lines", "type": "cell-based, human", "conditions": "24 and 48 hours post treatment", "description": "Cells were seeded in 6 wells plate at a density of 150,000-200,000 cells/well and were incubated overnight. Then, cells were treated with the synthesized compounds at 5-10 μM concentration for 48 hours. Morphological changes were monitored using a DMi8 inverted microscope (Leica, Germany) and images were captured with a Leica MC170 HD camera."}, "[17]": {"test_system": "MCF 10A", "conditions": "selectivity index"}, "[18]": {"test_system": "MCF 10A", "experiment": "Alamar Blue cell viability, normal breast epithelial cell line"}, "[19]": {"conditions": "range over both TNBC cell lines, read-out: IC50 against MDA-MB-231 and MDA-MB-436 cell lines"}}, "note": "Read-outs that look alike come from different tables or passages of the source.", "data": [{"smiles": "CS(=O)(=O)c1ccc(C(=O)/C=C/c2cccc(-c3ccsc3)n2)cc1", "note": "[Compound 23, (E)-1-(4-(methylsulfonyl)phenyl)-3-(6-(thiophen-3-yl)pyridin-2-yl) prop-2-en-1-one]", "values": [{"measurement": "colony formation in soft agar (number and size)", "setting": "[1]", "result": "significant reduction in both the total number of colonies and average colony size"}]}, {"smiles": "COc1ccc2c(c1)C(=O)/C(=C/c1cccc(-c3ccsc3)n1)CC2", "note": "[Compound 15, (E)-7-methoxy-2-((6-(thiophen-3-yl)pyridin-2-yl)methylene)-3,4-dihydronaphthalen-1 (2H)-one]", "values": [{"measurement": "effect on cell cycle distribution", "setting": "[2]", "result": "slight accumulation in G2/M and sub G1 phases"}, {"measurement": "wound closure", "setting": "[3]", "result": "dose-dependent reduction in wound closure"}, {"measurement": "IC50", "setting": "[4]", "result": "6.6 ± 0.49", "unit": "µM"}, {"measurement": "IC50", "setting": "[5]", "result": "6.47 ± 0.57", "unit": "µM"}, {"measurement": "ND LD50", "setting": "[6]", "result": ">50.0", "unit": "µM"}, {"measurement": "expression of JNK1/2/3, ERK1/2, Akt and phosphorylated forms", "setting": "[7]", "result": "reduced the expression of JNK1/2/3, p-ERK1/2, Akt and p-Akt"}, {"measurement": "Bax/Bcl-2 expression", "setting": "[8]", "result": "significant increase in Bax/Bcl-2 ratio"}, {"measurement": "IC50", "setting": "[9]", "result": "4.32 to 6.47", "unit": "µM"}]}, {"smiles": "COc1cc2c(cc1OC)C(=O)/C(=C/c1ccc(-c3ccsc3)nc1)CC2", "note": "[Compound 13, (E)-6,7-dimethoxy-2-((6-(thiophen-3-yl)pyridin-3-yl)methylene)-3,4-dihydronaphthalen-1 (2H)-one]", "values": [{"measurement": "effect on cell cycle distribution", "setting": "[2]", "result": "slight accumulation in G2/M and sub G1 phases"}, {"measurement": "colony formation in soft agar (number and size)", "setting": "[10]", "result": "significant reduction in both the total number of colonies and average colony size"}, {"measurement": "effect on cell morphology", "setting": "[11]", "result": "lose their shape, shrink in size, and increased cell death"}, {"measurement": "wound closure", "setting": "[3]", "result": "dose-dependent reduction in wound closure"}, {"measurement": "IC50", "setting": "[4]", "result": "5.6 ± 0.38", "unit": "µM"}, {"measurement": "IC50", "setting": "[5]", "result": "5.63 ± 1.07", "unit": "µM"}, {"measurement": "ND LD50", "setting": "[6]", "result": ">50.0", "unit": "µM"}, {"measurement": "Bax/Bcl-2 expression", "setting": "[8]", "result": "significant increase in Bax/Bcl-2 ratio"}, {"measurement": "IC50", "setting": "[9]", "result": "4.32 to 6.47", "unit": "µM"}]}, {"smiles": "O=C(/C=C/c1cccc(-c2ccsc2)n1)c1ccccc1C(F)(F)F", "note": "[Compound 25, (E)-3-(6-(thiophen-3-yl)pyridin-2-yl)-1-(2-(trifluoromethyl)phenyl) prop-2-en-1-one]", "values": [{"measurement": "IC50", "setting": "[12]; 24 hrs. post treatment", "result": "3.5 ± 1.47", "unit": "µM"}, {"measurement": "IC50", "setting": "[12]; 48 hrs. post treatment", "result": 2.1, "unit": "µM"}, {"measurement": "IC50", "setting": "[13]; 24 hrs. post treatment", "result": "2.4 ± 0.2", "unit": "µM"}, {"measurement": "IC50", "setting": "[13]; 48 hrs. post treatment", "result": 0.87, "unit": "µM"}, {"measurement": "IC50", "setting": "[14]; [19]", "result": "0.87 to 3.2", "unit": "µM"}, {"measurement": "IC50", "setting": "[14]; range, unit inferred, read-out: IC50 (TNBC cell lines)", "result": "0.87 to 2.1", "unit": "µM"}, {"measurement": "cell migration of MDA-MB-231 (wound healing)", "setting": "[15]; dose-dependent", "result": "significantly reduced cell migration"}, {"measurement": "effect on cell morphology", "setting": "[16]", "result": "lose their shape, shrink in size, form apoptotic bodies, and increased cell death"}, {"measurement": "SI of MCF 10A/MDA-MB231", "setting": "[17]", "result": 1.8}, {"measurement": "SI of MCF 10A/MDA-MB436", "setting": "[17]", "result": 3.9}, {"measurement": "selectivity versus normal cells (MCF10a)", "setting": "[18]; MDA-231 and MDA-436 vs MCF10a", "result": "greater selectivity towards cancerous cell lines"}, {"measurement": "Effect on non-tumorigenic epithelial cell line MCF 10A", "setting": "[18]; after 48 hrs.", "result": "3.44 ± 0.4", "unit": "µM"}]}, {"smiles": "COc1ccccc1C(=O)/C=C/c1cccc(-c2ccsc2)n1", "note": "[Compound 17, (E)-1-(2-methoxyphenyl)-3-(6-(thiophen-3-yl)pyridin-2-yl) prop-2-en-1-one]", "values": [{"measurement": "IC50", "setting": "[12]; 24 hrs. post treatment", "result": "3.6 ± 0.5", "unit": "µM"}, {"measurement": "IC50", "setting": "[12]; 48 hrs. post treatment", "result": 3.2, "unit": "µM"}, {"measurement": "IC50", "setting": "[13]; 24 hrs. post treatment", "result": "3.2 ± 0.2", "unit": "µM"}, {"measurement": "IC50", "setting": "[13]; 48 hrs. post treatment", "result": 1.6, "unit": "µM"}, {"measurement": "IC50", "setting": "[14]; [19]", "result": "0.87 to 3.2", "unit": "µM"}, {"measurement": "cell migration of MDA-MB-231 (wound healing)", "setting": "[15]", "result": "significantly reduced cell migration"}, {"measurement": "colony formation in soft agar (number and size)", "setting": "[1]", "result": "significant reduction in both the total number of colonies and average colony size"}, {"measurement": "effect on cell morphology", "setting": "[16]", "result": "lose their shape, shrink in size, form apoptotic bodies, and increased cell death"}, {"measurement": "reduction in cell viability of PC3", "setting": "[4]; 2.5 μM", "result": 84.7, "unit": "%"}, {"measurement": "selectivity versus normal cells (MCF10a)", "setting": "[18]", "result": "greater selectivity towards cancerous cell lines"}]}]}
